Assay results reported in patent US20230190717A1, “P38 GAMMA INHIBITORS AND METHOD OF USE THEREOF” (City of Hope, priority 2017, published 2023).

How the values were obtained:
Type in all cases: cell-based, human
SS patient cells = test: Cell viability, SS patient cells; details: SS patient cells (n=2), 100 nM
Description: Compound, Samples, and Cell Culture: […] Isolation of PBMCs or CD4^+T cells from both patients and healthy donors and culture of CTCL cell lines (Hut78, HH, and H9) were performed as previously described. […] IC50 values were determined using […] software (Biosoft).

HL60 = test: NCI-60 cytotoxicity, HL60; details: HL60 (AML), 72 h
Description: (§1) Briefly, human NCI-60 cancer cell lines were counted with a Vi-CELL Cell Viability Analyzer (Beckman Coulter), resuspended in RPMI-1640 medium containing 10% FBS and 1% penicillin/streptomycin and dispensed in wells of 96-well microplates (3000 cells per well for solid tumor and 5000 per well for blood tumor cells) using an epMotion 5075 liquid handler (Eppendorf) under a sterile condition, followed by incubation overnight at 37° C. in 5% (v/v) CO2. Cells were exposed to compounds in a dose-dependent manner for 72 h. An MTS dye (20 uL per well) was added to each well. Cell viability was determined by tetrazolium conversion to its […] dye. […] Each experiment was performed in duplicate. […] H9 cells are more sensitive to drugs, therefore instead of 72 hours, we choose 48 hour the incubation time for H9 cells.
(§2) IC50 values were determined using […] software (Biosoft).

NCI-H460 = test: NCI-60 cytotoxicity, NCI-H460; details: NCI-H460 (Lung), 72 h
Description: as §1, §2

HOP-92 = test: NCI-60 cytotoxicity, HOP-92; details: HOP-92 (Lung), 72 h
Description: as §1, §2

NCI-H322M = test: NCI-60 cytotoxicity, NCI-H322M; details: NCI-H322M (Lung), 72 h
Description: as §1, §2

EKVX = test: NCI-60 cytotoxicity, EKVX; details: EKVX (Lung), 72 h
Description: as §1, §2

SW-620 = test: NCI-60 cytotoxicity, SW-620; details: SW-620 (Colon), 72 h
Description: as §1, §2

HT29 = test: NCI-60 cytotoxicity, HT29; details: HT29 (Colon), 72 h
Description: as §1, §2

OVCAR-3 = test: NCI-60 cytotoxicity, OVCAR-3; details: OVCAR-3 (Ovarian), 72 h
Description: as §1, §2

SKOV3 = test: NCI-60 cytotoxicity, SKOV3; details: SKOV3 (Ovarian), 72 h
Description: as §1, §2

IGR-OV1 = test: NCI-60 cytotoxicity, IGR-OV1; details: IGR-OV1 (Ovarian), 72 h
Description: as §1, §2

OVCAR-8 = test: NCI-60 cytotoxicity, OVCAR-8; details: OVCAR-8 (Ovarian), 72 h
Description: as §1, §2

OVCAR-5 = test: NCI-60 cytotoxicity, OVCAR-5; details: OVCAR-5 (Ovarian), 72 h
Description: as §1, §2

LOX IMVI = test: NCI-60 cytotoxicity, LOX IMVI; details: LOX IMVI (Melanoma), 72 h
Description: as §1, §2

SK-MEL-5 = test: NCI-60 cytotoxicity, SK-MEL-5; details: SK-MEL-5 (Melanoma), 72 h
Description: as §1, §2

SK-MEL-2 = test: NCI-60 cytotoxicity, SK-MEL-2; details: SK-MEL-2 (Melanoma), 72 h
Description: as §1, §2

M14 = test: NCI-60 cytotoxicity, M14; details: M14 (Melanoma), 72 h
Description: as §1, §2

MDA-MB-435 = test: NCI-60 cytotoxicity, MDA-MB-435; details: MDA-MB-435 (Melanoma), 72 h
Description: as §1, §2

SK-MEL-28 = test: NCI-60 cytotoxicity, SK-MEL-28; details: SK-MEL-28 (Melanoma), 72 h
Description: as §1, §2

T-47D = test: NCI-60 cytotoxicity, T-47D; details: T-47D (Breast), 72 h
Description: as §1, §2

MCF7 = test: NCI-60 cytotoxicity, MCF7; details: MCF7 (Breast), 72 h
Description: as §1, §2

HS 578T = test: NCI-60 cytotoxicity, HS 578T; details: HS 578T (Breast), 72 h
Description: as §1, §2

SF-295 = test: NCI-60 cytotoxicity, SF-295; details: SF-295 (CNS), 72 h
Description: as §1, §2

SNB-75 = test: NCI-60 cytotoxicity, SNB-75; details: SNB-75 (CNS), 72 h
Description: as §1, §2

ACHN = test: NCI-60 cytotoxicity, ACHN; details: ACHN (Renal), 72 h
Description: as §1, §2

SN12C = test: NCI-60 cytotoxicity, SN12C; details: SN12C (Renal), 72 h
Description: as §1, §2

DU-145 = test: NCI-60 cytotoxicity, DU-145; details: DU-145 (Prostate), 72 h
Description: as §1, §2

NCI-H226 = test: NCI-60 cytotoxicity, NCI-H226; details: NCI-H226 (Lung), 72 h
Description: Cells were exposed to compounds in a dose-dependent manner for 72 h. An MTS dye (20 uL per well) was added to each well. Cell viability was determined by tetrazolium conversion to its format an dye. Absorbance was monitored at 490 nm using an automated BMG PHERAstar plate reader (BMG Labtech). Each experiment was performed in duplicate. IC50 values were determined using CalcuSyn software (Biosoft).
Absorbance was monitored at 490 nm using an automated BMG PHERAstar plate reader (BMG Labtech). […] All experiments are repeated in three independent experiments and data represented are the average of triplicate experiments.

For Cc1ccc([N+](=O)[O-])cc1S(=O)(=O)N(C)/N=C/c1cnc2ccc(Br)cn12 [Compound 1], the cell viability (SS patient cells) was “significantly reduced viability”, the IC50 (HL60; Homo sapiens, HL-60) was 0.005 µM and the IC50 (NCI-H460; Homo sapiens) was 0.01 µM. The IC50 (HOP-92; Homo sapiens) was 0.094 µM, the IC50 (NCI-H322M; Homo sapiens) was 1.5 µM and the IC50 (EKVX; Homo sapiens) was 1.22 µM. For the same compound, the IC50 (SW-620; Homo sapiens) was 0.074 µM, the IC50 (HT29; Homo sapiens, HT-29) was 0.087 µM and the IC50 (OVCAR-3; Homo sapiens) was 0.071 µM. The IC50 (SKOV3; Homo sapiens, SK-OV-3) was 0.291 µM, the IC50 (IGR-OV1; Homo sapiens, IGROV-1) was 0.251 µM and the IC50 (OVCAR-8; Homo sapiens) was 0.059 µM. The IC50 (OVCAR-5; Homo sapiens) was 0.04 µM, the IC50 (LOX IMVI; Homo sapiens) was 0.073 µM and the IC50 (SK-MEL-5; Homo sapiens) was > 10 µM. The IC50 (SK-MEL-2; Homo sapiens) was 0.317 µM, the IC50 (M14; Homo sapiens) was 0.195 µM and the IC50 (MDA-MB-435; Homo sapiens) was > 10 µM. The IC50 (SK-MEL-28; Homo sapiens) was 1.69 µM, the IC50 (T-47D; Homo sapiens, T47D) was > 10 µM and the IC50 (MCF7; Homo sapiens) was 0.238 µM. The IC50 (HS 578T; Homo sapiens) was 0.586 µM, the IC50 (SF-295; Homo sapiens) was 0.141 µM and the IC50 (SNB-75; Homo sapiens) was 0.435 µM. For the same compound, the IC50 (ACHN; Homo sapiens) was 0.092 µM, the IC50 (SN12C; Homo sapiens) was 0.468 µM and the IC50 (DU-145; Homo sapiens) was 0.001 µM.
For O=C1NC(=NCc2cccs2)S/C1=C\c1ccc2ncccc2c1 [Compound A10], the IC50 (HL60) was 1.14 µM, the IC50 (NCI-H226) was > 10 µM and the IC50 (NCI-H460) was > 10 µM. For the same compound, the IC50 (HOP-92) was 6.04 µM, the IC50 (NCI-H322M) was > 10 µM and the IC50 (EKVX) was > 10 µM. For the same compound, the IC50 (SW-620) was > 10 µM, the IC50 (HT29) was > 10 µM and the IC50 (OVCAR-3) was > 10 µM. For the same compound, the IC50 (SKOV3) was > 10 µM, the IC50 (IGR-OV1) was > 10 µM and the IC50 (OVCAR-8) was > 10 µM. The IC50 (OVCAR-5) was > 10 µM, the IC50 (LOX IMVI) was 4.4 µM and the IC50 (SK-MEL-5) was > 10 µM. The IC50 (SK-MEL-2) was > 10 µM, the IC50 (MDA-MB-435) was 6.6 µM and the IC50 (SK-MEL-28) was > 10 µM. The IC50 (T-47D) was 6.19 µM, the IC50 (HS 578T) was 5.83 µM and the IC50 (SF-295) was > 10 µM. For the same compound, the IC50 (SNB-75) was > 10 µM, the IC50 (ACHN) was 4.46 µM and the IC50 (SN12C) was > 10 µM. It also gave an IC50 (DU-145) of 1.38 µM.
In the case of O=C1NCCc2[nH]c(-c3ccncc3)cc21 [Compound A11], the IC50 (HL60) is reported as 0.247 µM, the IC50 (NCI-H226) is reported as > 10 µM and the IC50 (HOP-92) is reported as 6.4 µM. The IC50 (NCI-H322M) was > 10 µM, the IC50 (EKVX) was > 10 µM and the IC50 (SW-620) was 3.93 µM. For the same compound, the IC50 (HT29) was 5.04 µM, the IC50 (OVCAR-3) was 2.52 µM and the IC50 (SKOV3) was > 10 µM. The IC50 (IGR-OV1) was > 10 µM, the IC50 (OVCAR-8) was 3.6 µM and the IC50 (OVCAR-5) was 5.31 µM. For the same compound, the IC50 (LOX IMVI) was 3.58 µM, the IC50 (SK-MEL-5) was > 10 µM and the IC50 (SK-MEL-2) was > 10 µM. For the same compound, the IC50 (M14) was 3.33 µM, the IC50 (MDA-MB-435) was > 10 µM and the IC50 (SK-MEL-28) was 9.6 µM. The IC50 (T-47D) was > 10 µM, the IC50 (MCF7) was 3.77 µM and the IC50 (HS 578T) was > 10 µM. For the same compound, the IC50 (SF-295) was 7.64 µM, the IC50 (SNB-75) was 6.14 µM and the IC50 (ACHN) was > 10 µM. For the same compound, the IC50 (DU-145) was 2.26 µM.
